The term EC50 denotes the concentration needed to bring the measured effect to its halfway point.

These results are taken from publication PMC9552116 (Biochemistry and Biophysics Reports, 2022).

One data set deals with human LRP1(CL3)-Fc (Homo sapiens, UniProt Q07954). Briefly: Cell-free ELISA, binding of biotinylated peptide to captured LRP1. Conditions: Fig. 3, n = 3. (In an ELISA, binding on a coated surface is turned into a signal by an enzyme label.)
In another data set the target is human LRP1(CL2)-Fc (Homo sapiens, UniProt Q07954). The description is as above. As to conditions: Fig. 3, n = 3.
Another data set addresses human LRP1(CL4)-Fc (Homo sapiens, UniProt Q07954). Described as above. As to conditions: Supplementary Fig. S1.
The test system of data set [1] is in vitro rat BBB model kit (RBT-24H). Kind of data set: BBB permeability in in vitro rat BBB model. As to conditions: 1 μM input, 30 min, 37 °C, fluorescence, n = 1. In kind it is in vitro ADME.
The subject of another data set is LRP1(CL2). Conditions: ref [18]; cited from earlier work.
For the next data set, the system named is LRP1. Conditions: read-out: LRP1-binding EC50; ref [18]; cited from earlier work.

Bridge positions count the residues as written; N and C are the ends. Square brackets hold non-standard residues; d marks the D form. Peptide text beside a SMILES is read from it. * marks the point of attachment. Biotin = O=C1N[C@H]2[C@H](CS[C@H]2CCCCC(=O)*)N1; Nle = CCCC[C@H](N)C(=O)O

With `CCCC[C@H](NC(=O)[C@H](CCC(=O)O)NC(=O)[C@H](C)NC(=O)[C@H](CC(C)C)NC(=O)[C@H](CCCC)NC(=O)[C@H](Cc1ccc(O)cc1)NC(=O)[C@H](CCCCN)NC(=O)[C@H](Cc1ccc(O)cc1)NC(=O)[C@@H](NC(=O)[C@H](CS)NC(=O)[C@@H]1CCCN1C(=O)[C@@H](NC(=O)CNC(=O)[C@H](CCCCNC(=O)CCCC[C@@H]1SC[C@@H]2NC(=O)N[C@@H]21)NC(C)=O)[C@@H](C)O)[C@@H](C)O)C(=O)N[C@@H](CS)C(=O)O` [Biotin-KS-487(linear)] (Ac-K(Biotin)GTPCTYKY[Nle]LAE[Nle]C-OH), the “binding to LRP1(CL3)” value at human LRP1(CL3)-Fc is reported as “no binding or slight binding”. Also, the “binding to LRP1(CL2)” value at human LRP1(CL2)-Fc is “no binding or slight binding”. As to `CCCC[C@@H]1NC(=O)[C@H](CCC(=O)O)NC(=O)[C@H](C)NC(=O)[C@H](CC(C)C)NC(=O)[C@H](CCCC)NC(=O)[C@H](Cc2ccc(O)cc2)NC(=O)[C@H](CCCCN)NC(=O)[C@H](Cc2ccc(O)cc2)NC(=O)[C@H]([C@@H](C)O)NC(=O)[C@@H](NC(=O)[C@@H]2CCCN2C(=O)[C@@H](NC(=O)CNC(=O)[C@H](CCCCNC(=O)CCCC[C@@H]2SC[C@@H]3NC(=O)N[C@@H]32)NC(C)=O)[C@@H](C)O)CSSC[C@@H](C(=O)O)NC1=O` [Biotin-KS-487] (Ac-K(Biotin)GTPCTYKY[Nle]LAE[Nle]C-OH; disulfide 5-15), the “binding to LRP1(CL3)” value at human LRP1(CL3)-Fc is reported as “no binding or slight binding”. Moreover, the “binding to LRP1(CL2)” value on human LRP1(CL2)-Fc is recorded as “no binding or slight binding”. As to `CSCC[C@@H]1NC(=O)[C@H](CCC(=O)O)NC(=O)[C@H](C)NC(=O)[C@H](CC(C)C)NC(=O)[C@H](CCSC)NC(=O)[C@H](Cc2ccc(O)cc2)NC(=O)[C@H](CCCCN)NC(=O)[C@H](Cc2ccc(O)cc2)NC(=O)[C@H]([C@@H](C)O)NC(=O)[C@@H](NC(=O)[C@@H]2CCCN2C(=O)[C@@H](NC(=O)CNC(=O)[C@H](CCCCNC(=O)CCCC[C@@H]2SC[C@@H]3NC(=O)N[C@@H]32)NC(C)=O)[C@@H](C)O)CSSC[C@@H](C(=O)O)NC1=O` [Biotin-Pep0] (Ac-K(Biotin)GTPCTYKYMLAEMC-OH; disulfide 5-15; N-terminus and C-terminus assumed), on human LRP1(CL4)-Fc, the “binding activity to LRP1(CL4)” value is reported as “moderate binding activity”. For `C[C@@H](O)[C@H](NC(=O)CNC(=O)[C@@H](N)CCCCNC(=O)c1ccc2c(c1)C(=O)OC21c2ccc(O)cc2Oc2cc(O)ccc21)C(=O)N[C@@H](Cc1ccccc1)C(=O)N[C@@H](Cc1ccccc1)C(=O)N[C@@H](Cc1ccc(O)cc1)C(=O)NCC(=O)NCC(=O)N[C@@H](CO)C(=O)N[C@@H](CCCNC(=N)N)C(=O)NCC(=O)N[C@@H](CCCCN)C(=O)N[C@@H](CCCNC(=N)N)C(=O)N[C@@H](CC(N)=O)C(=O)N[C@@H](CC(N)=O)C(=O)N[C@@H](Cc1ccccc1)C(=O)N[C@@H](CCCCN)C(=O)N[C@H](C(=O)N[C@@H](CCC(=O)O)C(=O)N[C@@H](CCC(=O)O)C(=O)N[C@@H](Cc1ccc(O)cc1)C(=O)O)[C@@H](C)O` [Pep 5FAM-ANG2], the “% input crossed to the brain side” value in data set [1] is “below 0.5%”. Turning to TWPKHFDKHTFYSILKLGKH-OH [Pep L57], the “cross-reactivity to LRP1(CL2)” value in the data set on LRP1(CL2) was “cross-reactivity”. In addition, the EC50 in the data set with LRP1 was 45 nM.
